Test system: SUM149PT
Test: Cytotoxicity against human triple negative SUM149PT cells assessed as cell viability measured by MTS assay
Assay type: functional, cell-based

Q: `CCCCc1nc(-c2ccc(OCCCN(CC)CC)cc2)nn1-c1ccc(-c2ccc(C(=O)OCC)cc2)cc1` was tested. Which IC50 did it give?
A: Its IC50 is 328 nM.

Q: For `CCCCc1nc(-c2ccc(OCCCN(CC)CC)cc2)nn1-c1ccc(-c2ccc(Cl)cc2)cc1`, which IC50 is on record?
A: The IC50 was 220 nM.

Q: With `CCCCc1nc(-c2ccc(OCCCN(CC)CC)cc2)nn1-c1ccc(-c2ccc(OC(F)(F)F)cc2)cc1` as the compound, how does the IC50 read?
A: Its IC50 is 664 nM.

Q: Which IC50 does the source give for `CCCCc1nc(-c2ccc(OCCCN(CC)CC)cc2)nn1-c1ccc(-c2ccc(C)cc2)cc1` here?
A: The IC50 was 267 nM.

Q: For `CCCCc1nc(-c2ccc(OCCCN(CC)CC)cc2)nn1-c1ccc(-c2ccc(C#N)cc2)cc1`, which IC50 is on record?
A: The IC50 was 5430 nM.

Q: How did the IC50 turn out when `CCCCc1nc(-c2ccc(OCCCN(CC)CC)cc2)nn1-c1ccc(Oc2ccc(Cl)cc2)cc1` was run?
A: The IC50 was 6300 nM.

Q: For `CCCCOc1ccc(-c2nc(CCCC)n(-c3ccc(Oc4ccc(Cl)cc4)cc3)n2)cc1`, which IC50 is on record?
A: Its IC50 is 16000 nM.

Q: With `CCCCc1nc(-c2ccc(OCCCN(CC)CC)cc2)nn1-c1ccc(Oc2ccccc2)cc1` as the compound, how does the IC50 read?
A: Its IC50 is 538 nM.

Q: Which IC50 does the source give for `CCCCc1nc(-c2ccc(OCCOCC)cc2)nn1-c1ccc(Oc2ccc(Cl)cc2)cc1` here?
A: The IC50 was 18600 nM.

Q: Which IC50 does the source give for `CCCCc1nc(-c2ccc(OCCCN(CC)CC)cc2)nn1-c1ccc(-c2ccnn2C)cc1` here?
A: The IC50 was 665 nM.

Q: For `CCCCc1nc(-c2ccc(OCCCN(CC)CC)cc2)nn1-c1ccc(-c2ccc(OC)cc2)cc1`, which IC50 is on record?
A: Its IC50 is 588 nM.

Q: How did the IC50 turn out when `CCN(CC)CCCOc1ccc(-c2nc(CCOC)n(-c3ccc(Oc4ccc(Cl)cc4)cc3)n2)cc1` was run?
A: The IC50 was 12500 nM.

Q: Which IC50 does the source give for `CCCCc1nc(-c2ccc(OCCC)cc2)nn1-c1ccc(Oc2ccccc2)cc1` here?
A: Its IC50 is 13700 nM.

Q: `CCCCc1nc(-c2ccc(OCCN3CCCCC3)cc2)nn1-c1ccc(Oc2ccc(Cl)cc2)cc1` was tested. Which IC50 did it give?
A: The IC50 was 5680 nM.

Q: `CCCCc1nc(-c2ccc(OCCCN(CC)CC)cc2)nn1-c1ccc(-c2ccc(OC)cc2OC)cc1` was tested. Which IC50 did it give?
A: The IC50 was 487 nM.

Q: With `CCCCc1nc(-c2ccc(OCCCN(CC)CC)cc2)cn1-c1ccc(Oc2ccc(Cl)cc2)cc1` [AZELIRAGON] as the compound, how does the IC50 read?
A: Its IC50 is 5290 nM.

Source: ChEMBL document CHEMBL5032533, “Design, synthesis and anti-TNBC activity of Azeliragon triazole analogues” (Bioorg Med Chem Lett, 2021)
